Assay results: patent US9120791B2, “Indolizine compounds, a process for their preparation and pharmaceutical compositions containing them” (LES LABORATOIRES SERVIER, priority 2012, dated 2015)
Structures can show the parent of a compound that is named as a salt. Where two headings read alike, the source gives them in different places.

What was measured:
[1] = tested on: RS4;11 leukaemia tumour line; assay: In vitro cytotoxicity (Microculture Tetrazolium Assay, 48 hours); format: cell-based; conditions: read-out: IC50 (nM) MTT RS4
Protocol: The cytotoxicity studies were carried out on the RS4;11 leukaemia tumour line.
The cells are distributed onto microplates and exposed to the test compounds for 48 hours.

Bcl-2 protein = Bcl-2 protein (Homo sapiens (Human), UniProt P10415); assay: Inhibition of Bcl-2 by the fluorescence polarisation technique; format: binding; conditions: read-out: IC50 (nM) Bcl-2 FP
Protocol: The fluorescence polarisation tests were carried out on microplates (384 wells). […] After incubation for 2 hours, the fluorescence polarisation is measured.

[2] = Homo sapiens, RS4;11 cells, 48 hours exposure, MTT, concentration that inhibits cell viability by 50%
[3] = fluorescence polarisation test, concentration that inhibits fluorescence polarisation by 50%
[4] = RS4;11 cells, 48 hours exposure, MTT, concentration that inhibits cell viability by 50%

Sequence of Bcl-2 protein (P10415 whole entry): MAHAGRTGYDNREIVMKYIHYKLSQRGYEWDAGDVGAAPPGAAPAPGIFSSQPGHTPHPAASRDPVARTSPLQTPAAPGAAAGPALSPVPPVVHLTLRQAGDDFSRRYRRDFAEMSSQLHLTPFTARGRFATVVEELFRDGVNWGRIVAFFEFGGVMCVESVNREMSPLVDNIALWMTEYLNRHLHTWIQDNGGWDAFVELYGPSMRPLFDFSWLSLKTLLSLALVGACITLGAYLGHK

| Structure (SMILES) | IC50 [1, 2] [nM] | further results |
| --- | --- | --- |
| O=C(c1cc(-c2cc3c(cc2C(=O)N2Cc4ccccc4C[C@H]2CN2CCOCC2)OCO3)n2c1CCCC2)N(c1ccccc1)c1ccc(O)cc1 [Example 1, N-(4-Hydroxyphenyl)-3-{6-[((3S)-3-(4-morpholinylmethyl)-3,4-dihydro-2(1H)-isoquinolinyl)carbonyl]-1,3-benzdioxol-5-yl}-N-phenyl-5,6,7,8-tetrahydro-1-indolizine carboxamide hydrochloride] | 60.1 | – |
| O=C(c1cc(-c2cc3c(cc2C(=O)N2Cc4ccccc4C[C@H]2CN2CCOCC2)OCO3)n2c1CCCC2)N(c1ccc(O)cc1)c1ccc(OC(F)(F)F)cc1 [Example 5, N-(4-Hydroxyphenyl)-3-{6-[((3S)-3-(4-morpholinylmethyl)-3,4-dihydro-2(1H)-isoquinolinyl)carbonyl]-1,3-benzodioxol-5-yl}-N-[4-(trifluoromethoxy)phenyl]-5,6,7,8-tetrahydro-1-indolizine carboxamide hydrochloride] | 98 | IC50 (Bcl-2 protein; [3]): 51 nM |
| O=C(c1cc(-c2cc3c(cc2C(=O)N2Cc4ccccc4C[C@H]2CN2CCOCC2)OCO3)n2c1CCCC2)N(c1ccc(O)cc1)c1ccc(O)cc1 [Example 6, N,N-bis(4-Hydroxyphenyl)-3-{6-[((3S)-3-(4-morpholinylmethyl)-3,4-dihydro-2(1H)-isoquinolinyl)carbonyl]-1,3-benzodioxol-5-yl}-5,6,7,8-tetrahydro-1-indolizine carboxamide hydrochloride] | – | IC50 (Bcl-2 protein; [3]): 15 nM; IC50 ([1]; Homo sapiens, RS4-11, 48 h): 30 nM |
| Cn1ccc2cc(N(C(=O)c3cc(-c4cc5c(cc4C(=O)N4Cc6ccccc6C[C@H]4CN4CCOCC4)OCO5)n4c3CCCC4)c3ccc(O)cc3)ccc21 [Example 10, N-[4-(Hydroxy)phenyl]-N-(1-methyl-1H-indol-5-yl)-3-{6-[((3S)-3-(4-morpholinylmethyl)-3,4-dihydro-2(1H)-isoquinolinyl)carbonyl]-1,3-benzodioxol-5-yl}-5,6,7,8-tetrahydro-1-indolizine carboxamide hydrochloride] | 11 | – |
| CN1CCN(C[C@@H]2Cc3ccccc3CN2C(=O)c2cc3c(cc2-c2cc(C(=O)N(c4ccc(O)cc4)c4ccc5c(ccn5C)c4)c4n2CCCC4)OCO3)CC1 [Example 13, N-(4-Hydroxyphenyl)-N-(1-methyl-1H-indol-5-yl)-3-{6-[((3S)-3-[(4-methyl-1-piperazinyl)methyl]-3,4-dihydro-2(1H)-isoquinolinyl)carbonyl]-1,3-benzodioxol-5-yl}-5,6,7,8-tetrahydro-1-indolizine carboxamide bis(hydrochloride)] | 8.63 | IC50 (Bcl-2 protein; [3]): 12 nM |
| Cn1ccc2cc(N(C(=O)c3cc(-c4cc5c(cc4C(=O)N4Cc6ccccc6C[C@H]4CN4CCCOCC4)OCO5)n4c3CCCC4)c3ccc(O)cc3)ccc21 [Example 14, N-(4-Hydroxyphenyl)-N-(1-methyl-1H-indol-5-yl)-3-{6-[((3S)-3-(1,4-oxazepan-4-ylmethyl)-3,4-dihydro-2(1H)-isoquinolinyl)carbonyl]-1,3-benzodioxol-5-yl}-5,6,7,8-tetrahydro-1-indolizine carboxamide hydrochloride] | 10.7 | IC50 (Bcl-2 protein; [3]): 16 nM |
| C[C@@H]1COCCN1C[C@@H]1Cc2ccccc2CN1C(=O)c1cc2c(cc1-c1cc(C(=O)N(c3ccc(O)cc3)c3ccc4c(ccn4C)c3)c3n1CCCC3)OCO2 [Example 15, N-(4-Hydroxyphenyl)-N-(1-methyl-1H-indol-5-yl)-3-{6-[((3S)-3-{[(3R)-3-methylmorpholinyl]methyl}-3,4-dihydro-2(1H)-isoquinolinyl)carbonyl]-1,3-benzodioxol-5-yl}-5,6,7,8-tetrahydro-1-indolizine carboxamide hydrochloride] | – | IC50 (Bcl-2 protein): 17 nM; IC50 [1, 4]: 20.4 nM |
| C[C@H]1COCCN1C[C@@H]1Cc2ccccc2CN1C(=O)c1cc2c(cc1-c1cc(C(=O)N(c3ccc(O)cc3)c3ccc4c(ccn4C)c3)c3n1CCCC3)OCO2 [Example 16, N-(4-Hydroxyphenyl)-N-(1-methyl-1H-indol-5-yl)-3-{6-[((3S)-3-{[(3S)-3-methylmorpholinyl]methyl}-3,4-dihydro-2(1H)-isoquinolinyl)carbonyl]-1,3-benzodioxol-5-yl}-5,6,7,8-tetrahydro-1-indolizine carboxamide hydrochloride] | – | IC50 (Bcl-2 protein): 18 nM; IC50 [1, 4]: 23.4 nM |
| CCOc1ccc(C(=O)N2Cc3ccccc3C[C@H]2CN2CCOCC2)c(-c2cc(C(=O)N(c3ccc(O)cc3)c3ccc4c(ccn4C)c3)c3n2CCCC3)c1 [Example 36, 3-{5-Ethoxy-2-[((3S)-3-(4-morpholinylmethyl)-3,4-dihydro-2(1H)-isoquinolinyl)carbonyl]phenyl}-N-(4-hydroxyphenyl)-N-(1-methyl-H-indol-5-yl)-5,6,7,8-tetrahydro-1-indolizine carboxamide hydrochloride] | – | IC50 [1, 4]: 135 nM |
| Cl.[2H]C1([2H])Oc2cc(C(=O)N3Cc4ccccc4C[C@H]3CN3CCOCC3)c(-c3cc(C(=O)N(c4ccc(O)cc4)c4ccc5c(ccn5C)c4)c4n3CCCC4)cc2O1 [Example 37, N-(4-Hydroxyphenyl)-N-(1-methyl-1H-indol-5-yl)-3-{2,2-dideuterio-6-[((3S)-3-(4-morpholinylmethyl)-3,4-dihydro-2(1H)-isoquinolinyl)carbonyl]-1,3-benzodioxol-5-yl}-5,6,7,8-tetrahydro-1-indolizine carboxamide hydrochloride] | 11.6 | – |
| Cl.[2H]C1([2H])Oc2cc(C(=O)N3Cc4ccccc4C[C@H]3CN3CCOCC3)c(-c3cc(C(=O)N(c4ccccc4)c4ccc(O)cc4)c4n3CCCC4)cc2O1 [Example 38, N-(4-Hydroxyphenyl)-3-{2,2-dideuterio-6-[((3S)-3-(4-morpholinylmethyl)-3,4-dihydro-2(1H)-isoquinolinyl)carbonyl]-1,3-benzodioxol-5-yl}-N-phenyl-5,6,7,8-tetrahydro-1-indolizine carboxamide hydrochloride] | 61.8 | – |
| Cn1ccc2cc(N(C(=O)c3cc(-c4cc5c(cc4C(=O)N4Cc6ccccc6C[C@H]4CN4CCOCC4)OCO5)n4c3CCCCC4)c3ccc(O)cc3)ccc21 [Example 84, hydrochloride] | 20.6 | – |
| O=C(c1cc(-c2cc(Cl)ccc2C(=O)N2Cc3ccccc3C[C@H]2CN2CCOCC2)n2c1CCCC2)N(c1ccc(O)cc1)c1cncnc1 [Example 141, 3-(5-Chloro-2-{[(3S)-3-(morpholin-4-ylmethyl)-3,4-dihydroisoquinolin-2(1H)-yl]carbonyl}phenyl)-N-(4-hydroxyphenyl)-N-(pyrimidin-5-yl)-5,6,7,8-tetrahydroindolizine-1-carboxamide hydrochloride] | 72.5 | – |
| O=C(c1cc(-c2cc(Cl)ccc2C(=O)N2Cc3ccccc3C[C@H]2CN2CCOCC2)n2c1CCCC2)N(c1ccc(O)cc1)c1cccnc1 [Example 142, 3-(5-Chloro-2-{[(3S)-3-(morpholin-4-ylmethyl)-3,4-dihydroisoquinolin-2(1H)-yl]carbonyl}phenyl)-N-(4-hydroxyphenyl)-N-(pyridin-3-yl)-5,6,7,8-tetrahydroindolizine-1-carboxamide bis(hydrochloride)] | 66.1 | – |
| COc1c(F)cc(N(C(=O)c2cc(-c3cc(Cl)ccc3C(=O)N3Cc4ccccc4C[C@H]3CN3CCOCC3)n3c2CCCC3)c2ccc(O)cc2)cc1F [Example 143, 3-(5-Chloro-2-{[(3S)-3-(morpholin-4-ylmethyl)-3,4-dihydroisoquinolin-2(1H)-yl]carbonyl}phenyl)-N-(3,5-difluoro-4-methoxyphenyl)-N-(4-hydroxyphenyl)-5,6,7,8-tetrahydroindolizine-1-carboxamide hydrochloride] | 43.8 | – |
| O=C(c1cc(-c2cc(Cl)ccc2C(=O)N2Cc3ccccc3C[C@H]2CN2CCOCC2)n2c1CCCC2)N(c1ccncc1)c1ccc(O)cc1 [Example 144, 3-(5-Chloro-2-{[(3S)-3-(morpholin-4-ylmethyl)-3,4-dihydroisoquinolin-2(1H)-yl]carbonyl}phenyl)-N-(4-hydroxyphenyl)-N-(pyridin-4-yl)-5,6,7,8-tetrahydroindolizine-1-carboxamide bis(hydrochloride)] | 59.9 | – |
| COc1ccc(N(C(=O)c2cc(-c3cc(Cl)ccc3C(=O)N3Cc4ccccc4C[C@H]3CN3CCOCC3)n3c2CCCC3)c2ccc(O)cc2)cc1F [Example 145, 3-(5-Chloro-2-{[(3S)-3-(morpholin-4-ylmethyl)-3,4-dihydroisoquinolin-2(1H)-yl]carbonyl}phenyl)-N-(3-fluoro-4-methoxyphenyl)-N-(4-hydroxyphenyl)-5,6,7,8-tetrahydroindolizine-1-carboxamide hydrochloride] | 28.9 | – |
| COCCN(C)C[C@@H]1Cc2ccccc2CN1C(=O)c1cc2c(cc1-c1cc(C(=O)N(c3ccccc3)c3ccc(O)cc3)c3n1CCCC3)OCO2 [Example 146, N-(4-Hydroxyphenyl)-3-(6-{[(3S)-3-{[(2-methoxyethyl)(methyl)amino]-methyl}-3,4-dihydroisoquinolin-2(1H)-yl]carbonyl}-1,3-benzodioxol-5-yl)-N-phenyl-5,6,7,8-tetrahydroindolizine-1-carboxamide hydrochloride] | 153 | – |
| O=C(c1cc(-c2cc3c(cc2C(=O)N2Cc4ccccc4C[C@H]2CN2CCS(=O)(=O)CC2)OCO3)n2c1CCCC2)N(c1ccccc1)c1ccc(O)cc1 [Example 147, 3-(6-{[(3S)-3-[(1,1-Dioxidothiomorpholin-4-yl)methyl]-3,4-dihydroisoquinolin-2(1H)-yl]carbonyl}-1,3-benzodioxol-5-yl)-N-(4-hydroxyphenyl)-N-phenyl-5,6,7,8-tetrahydroindolizine-1-carboxamide hydrochloride] | 74.2 | – |
